The record followed here is ChEMBL document CHEMBL4229552, “Optimization of 5-arylidene barbiturates as potent, selective, reversible LSD1 inhibitors for the treatment of acute promyelocytic leukemia” (Bioorg Med Chem, 2018).

Assay [1] deals with T1, Lysine-specific histone demethylase 1A (Homo sapiens, UniProt O60341).
The subject of assay [2] is NB-4. The experiment in a line: Induction of differentiation of human NB4 cells assessed as increase in CD11b positive cells at 1.25 uM by flow cytometric analysis relative to control. Type of assay: functional, cell-based.
Assay [3] concerns NB-4. The experiment in a line: Induction of differentiation of human NB4 cells assessed as increase in CD11b positive cells at 5 uM by flow cytometric analysis relative to control. The assay is classed as functional.
Assay [4] relates to NB-4. The assay can be described thus: Induction of differentiation of human NB4 cells assessed as increase in CD11b positive cells at 2.5 uM by flow cytometric analysis relative to control. The assay is classed as functional.
The target in assay [5] is T1, Lysine-specific histone demethylase 1A. The experiment in a line: Inhibition of LSD1 in HEK293 cells assessed as increase in H3K4me1 levels at 10 uM after 24 hrs by Western blot method. The assay is classed as cell-based. A general note: In western blotting, separated proteins are transferred to a membrane and probed.
Assay [6] shares this target. The experiment in a line: Inhibition of LSD1 in HEK293 cells assessed as increase in H3K4me2 levels at 2.5 uM after 24 hrs by Western blot method. The assay is classed as cell-based.
For assay [7] the target is unchanged. The assay can be described thus: Binding affinity to fluorescently labeled recombinant human LSD1 expressed in Escherichia coli by MST analysis.
Assay [8] is filed under the species Homo sapiens.
For assay [9], the species on record is Homo sapiens. This is another data set of the same source.
In assay [10] the target is T2, Amine oxidase [flavin-containing] A (Homo sapiens, UniProt P21397).
T2 sequence (P21397 whole entry): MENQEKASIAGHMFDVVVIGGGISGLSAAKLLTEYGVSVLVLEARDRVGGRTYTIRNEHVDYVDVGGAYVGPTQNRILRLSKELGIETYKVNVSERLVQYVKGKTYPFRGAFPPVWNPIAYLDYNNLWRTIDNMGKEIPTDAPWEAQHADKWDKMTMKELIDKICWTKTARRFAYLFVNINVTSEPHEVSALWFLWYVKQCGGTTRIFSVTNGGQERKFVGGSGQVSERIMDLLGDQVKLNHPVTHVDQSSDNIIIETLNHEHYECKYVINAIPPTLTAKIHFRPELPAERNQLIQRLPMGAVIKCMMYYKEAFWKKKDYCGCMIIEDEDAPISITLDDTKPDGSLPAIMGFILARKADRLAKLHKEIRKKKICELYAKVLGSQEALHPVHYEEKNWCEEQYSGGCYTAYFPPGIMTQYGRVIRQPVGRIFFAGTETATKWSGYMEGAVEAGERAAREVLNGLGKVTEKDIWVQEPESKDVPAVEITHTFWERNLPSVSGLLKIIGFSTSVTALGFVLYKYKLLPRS
The assay can be described thus: Inhibition of recombinant full length N-terminal FLAG-tagged human MAO-A expressed in baculovirus infected Sf9 insect cells using […] as substrate after 1 hr by spectrometric method.

For assay [11], the target named is T3, Amine oxidase [flavin-containing] B (Homo sapiens, UniProt P27338).
T3 sequence (P27338 whole entry): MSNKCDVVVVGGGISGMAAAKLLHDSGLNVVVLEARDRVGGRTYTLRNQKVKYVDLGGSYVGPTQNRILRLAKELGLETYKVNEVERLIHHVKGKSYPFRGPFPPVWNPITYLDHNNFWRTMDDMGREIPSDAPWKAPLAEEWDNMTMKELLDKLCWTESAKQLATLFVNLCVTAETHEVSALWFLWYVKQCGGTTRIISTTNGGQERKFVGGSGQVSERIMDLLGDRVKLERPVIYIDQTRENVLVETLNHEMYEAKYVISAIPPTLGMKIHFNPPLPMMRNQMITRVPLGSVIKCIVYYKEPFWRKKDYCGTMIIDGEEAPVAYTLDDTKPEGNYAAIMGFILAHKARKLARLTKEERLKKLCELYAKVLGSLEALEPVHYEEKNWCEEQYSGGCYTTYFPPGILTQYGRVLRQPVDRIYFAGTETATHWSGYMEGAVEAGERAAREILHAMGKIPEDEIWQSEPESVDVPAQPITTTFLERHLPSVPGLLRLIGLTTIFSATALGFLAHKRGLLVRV
The experiment in a line: Inhibition of recombinant full length N-terminal FLAG-tagged human MAO-B expressed in baculovirus infected Sf9 insect cells using […] as substrate after 1 hr by spectrometric method.

For assay [12], the system named is NB-4. The experiment in a line: Induction of differentiation of human NB4 cells assessed as increase in CD11b positive cells at 10 uM by flow cytometric analysis relative to control. Type of assay: functional. Background: A flow cytometer gives signals particle by particle.
The target of assay [13] is T1, Lysine-specific histone demethylase 1A. The note with it: 4.1 uM.
Assay [14] has as its system NB-4. The experiment in a line: Induction of differentiation of human NB4 cells assessed as increase in CD11b positive cells at 0.5 to 5 uM by flow cytometric analysis. Type of assay: functional, cell-based.
The target of assay [15] is T1, Lysine-specific histone demethylase 1A. This is another data set of the same source.

Each structure is given as a SMILES string. Activity calls are given as the source filed them. The calls are words filed in the database; no cut-off is given here.

As usually defined, the IC50 is the concentration that gives 50% inhibition. Broadly, the Kd is a measure of binding affinity in units of concentration.

In the case of `COc1cc(C=C2C(=O)NC(=O)N(c3ccc(Br)cc3)C2=O)cc(OC)c1O`, 0.55 µM corresponded to half-maximal inhibition in [1] (IC50). The outcome in assay [2], in assay [3] and in [4] was Active.
Turning to `COc1ccc(C=C2C(=O)NC(=O)N(c3ccc(Br)cc3)C2=O)c(OC)c1OC`, the IC50 in assay [1] is 3.6 µM.
With `O=C1NC(=S)N(c2ccc(Br)cc2)C(=O)C1=Cc1ccc(O)c(O)c1`, the IC50 is 0.41 µM in assay [1], 72.5 µM in [10] and above 200 µM in [11]. Further, the inhibition entry in assay [5] and in assay [6] was “Active” each time. Moreover, the Activity in assay [3] is 36.6%; in assay [4] it was 12.5%; in [12], 89.7%; in [13] it was 98.2%. In [7], the Kd came out at 1.1 µM. Further, the Ratio IC50 was 177 in assay [8] and above 487 in [9].
In the case of `CN1CCN(C(=O)CN[C@H]2C[C@@H]2c2ccc(OCc3ccccc3)cc2)CC1`, the result in assay [14] was Active.
Take `O=C1NC(=O)N(c2ccc(Br)cc2)C(=O)C1=Cc1ccc(O)c(O)c1`: in [1], the IC50 came out at 0.3 µM. The outcome in assay [14] was Active. The Ratio IC50 in assay [15] was 12.
In assay [1], `COc1ccc(CC2C(=O)NC(=O)N(c3ccc(Br)cc3)C2=O)cc1OC` (configuration not stated) registered an IC50 above 75 µM.
Consider `COc1cc(C=C2C(=O)NC(=O)N(c3ccc(Br)cc3)C2=O)ccc1O`, for which the IC50 in assay [1] was 0.87 µM. The result in assay [2], in [3] and in assay [4] was Active.
In [1], `COc1ccc(C=C2C(=O)NC(=O)N(c3ccc(Br)cc3)C2=O)cc1O` returned an IC50 of 3.6 µM.
Same read-out and setting: the same measure for `COc1ccc(N2C(=O)NC(=O)/C(=C\c3ccc(N4CCOCC4)c(F)c3)C2=O)cc1`: 18.2 µM; for `COc1ccc(C=C2C(=O)NC(=O)N(c3ccc(Br)cc3)C2=O)cc1OC`: 2.8 µM.
As for `COc1ccc(N2C(=O)NC(=O)C(=Cc3ccc(O)c(O)c3)C2=O)cc1`, it took 3.1 µM to reach half-maximal inhibition in assay [1] (IC50).
On the same count and under the same terms, the same measure for `Cc1ccccc1N1C(=O)NC(=O)C(=Cc2cc3ccccc3[nH]2)C1=O`: 4.4 µM.
As to `N#Cc1ccc(N2C(=O)NC(=O)C(=Cc3ccc(O)c(O)c3)C2=O)cc1`, the IC50 in assay [1] was determined as 1.2 µM. The result in assay [14] was Active.
For the compound `Cc1ccc(N2C(=O)NC(=O)C(=Cc3cccc(O)c3)C2=O)cc1`, in assay [1], the IC50 was 23 µM.
Consider `Cc1ccc(N2C(=O)NC(=O)C(=Cc3cc4ccccc4[nH]3)C2=O)cc1`, for which the IC50 in assay [1] is 1.1 µM. Besides, the outcome in assay [14] was Active.
`CCc1ccc(N2C(=O)NC(=O)/C(=C\c3cc4ccccc4[nH]3)C2=O)cc1` had an IC50 in [1] of 6.42 µM.
